We go through 4 compounds from patent US8178579B2, “Dioxanes and uses thereof” (President and Fellows of Harvard College, priority 2001, dated 2012).

The test system of one assay is A549 cells. The assay is described as follows: mitotic abnormalities by immunofluorescence. In kind it is cell-based, human. The settings on record: 18 h or 24 h treatment, TSA 10 μM in FIG. 42C. The method, then:
Detection of acetylated α-tubulin and acetylated histones by immunofluorescence was performed as described in Example 6 above. For determining microtubule stability, A549 cells were treated as indicated, fixed in glutaraldehyde, and stained for acetylated α-tubulin and total α-tubulin in antibody dilution buffer (ADB, Tris-buffered saline (TBS), 0.15 M NaCl, 0.02 M Tris-Cl, pH 7.4, with 2% bovine serum albumin and 0.1% Triton-X 100). For cold-depolymerization, cells were incubated at 4° C. or 37° C. for an additional 90 minutes before fixation. For calcium depolymerization, cells were incubated at 37° C. for 10 minutes in a microtubule-stabilizing buffer (0.2% NP-40, 5 mM MgCl2, 2 mM EGTA, 2 M glycerol, 100 mM PIPES, pH 6.8) with and without the addition of CaCl2 (2 mM) before glutaraldehyde fixation. For co-localization experiments, biotubacin (50 μM) treated A549 cells were fixed in 3.7% formaldehyde in TBS and processed as for detecting acetylated α-tubulin (See Example 6 above) with biotubacin detected using streptavidin-TR (1:500). HDAC6 was detected using a rabbit polyclonal antibody (1:250-1:750; C.M.G., unpublished data) under the conditions used to detect acetylated α-tubulin (See Example 6 above). Filamentous actin in HT-1080 cells was detected using TR-conjugated phalloidin (1 μg/mL), and depolymerized actin using FITC-conjugated deoxyribonuclease (10 μg/mL), following fixation in 3.7% formaldehyde in TBS. p58 (1:100) in NIH-3T3 cells was detected after fixation in 3.7% formaldehyde in TBS. Images for these experiments were collected on a Zeiss LSM510 confocal scanning laser microscope at the appropriate wavelengths using the accompanying software and processed with Adobe Photoshop. Deconvoluted serial images of TSA and DMSO treated A549 cells were obtained by taking sections (8μ) on a Zeiss Axioskop 2 microscope using an AxioCam camera and the accompanying software. Rat hippocampal neuronal cultures were fixed at room temperature for 15 min in phosphate-buffered saline (PBS) containing 4% paraformaldehyde. […]

The subject of the next assay is α-tubulin deacetylation. The assay is described as follows: acetylated α-tubulin in cells (AcTubulin cytoblot, immunofluorescence, Western blot). The class given is cell-based, human. The note with it: for effect on tubulin deacetylation / α-tubulin acetylation in cells: A549 (also BS-C-1) cells, tubacin/JCWII114, niltubacin/JCWII153 2 μM, TSA 100 nM-4 μM, library ~2-5 μM, 18 h. As for the experimental part: (§1) A549 cells were seeded at a density of 4,000 cells/50 μl in DMEM+ in white tissue culture-treated 384-well plates (Nalge Nunc) using a Multidrop 384 liquid dispenser (Labsystems). Library small molecules were pinned twice (100-150 nl/pin) from ˜1 mM stock solutions (DMSO) and incubated for 18 hours. For the ITSA1+AcTubulin assay, ITSA1 (50 μM) was added four hours after pin-transfer of library molecules. Media was aspirated with a 16-channel wand. For the acetylated α-tubulin cytoblot (AcTubulin), 40 μl/well of fixation solution (3.7% formaldehyde (1:10 from 37% stock) in Tris-buffered saline (TBS, 0.15 M NaCl, 0.02 M Tris-Cl, pH 7.4) was added and plates incubated for twenty minutes at room temperature. After aspiration, 30 μl 100% methanol (−20° C.) was added and incubated for five minutes at room temperature. After aspirating and washing three times with 90 μl of antibody dilution buffer (ADB, TBS/2% bovine serum albumin, 0.1% TritonX-100) the wells were blocked for twenty minutes in ADB. After aspirating, 20 μl/well of ADB containing anti-acetylated α-tubulin antibody (mouse; 1:1000) and anti-mouse IgG horseradish peroxidase (HRP)-conjugated antibody (1:750) was added and incubated overnight (4° C.). For the anti-acetyl lysine cytoblot (AcLysine), 40 μl/well of fixation solution (95% ethanol/5% acetic acid, −20° C.) was added and plates incubated for five minutes at room temperature. Wells were aspirated, washed, and blocked in ADB as for the AcTubulin protocol. After aspirating, 20 μl/well of ADB containing anti-acetylated lysine (rabbit; 1:375) and anti-rabbit IgG-HRP conjugated antibody (1:750) was added and incubated overnight (4° C.). For the anti-acetylated histone H3 (AcHistH3) and anti-acetylated histone H4 (AcHistH4) cytoblots, cells were fixed, washed, and blocked in ADB as for the AcLysine cytoblot. After aspirating, 20 μl/well of ADB containing anti-acetylated histone H3 antibody (rabbit, 1:500) or anti-acetylated histone H4 antibody (rabbit, 1:500) was added and incubated for two hours at room temperature. Wells were aspirated and washed twice with 80 μl of ADB. After aspirating, 20 μl/well of ADB containing anti-rabbit IgG-HRP conjugated antibody (1:1000) was added and incubated for two hours (room temperature). For the AcTubulin and AcLysine assays, plates were washed three times with TBS before adding 20 μl/well of enhanced chemiluminescent (ECL) mixture. For the AcHistH3 and AcHistH4 assays, plates were washed three times with 80 μl TBS with 1% Triton X-100 and once with 80 μl TBS before adding 20 μl/well of ECL mixture. Plates were read on an Analyst plate reader (LJL Biosystems) with an integration time of 0.1 seconds.
(§2) 1,3-dioxanes from single polystyrene macrobeads were prepared as 1-2 mM stock solutions in DMSO as described [Hubbert, C., Guardiola, A., Shao, R., Kawaguchi, Y., Ito, A., Nixon, A., Yoshida, M., Wang, X. F., and Yao, T. P. (2002). HDAC6 is a microtubule-associated deacetylase. Nature 417, 455-458]. Bead decoding and structure determination were as described [See for example, Hubbert, C., Guardiola, A., Shao, R., Kawaguchi, Y., Ito, A., Nixon, A., Yoshida, M., Wang, X. F., and Yao, T. P. (2002). HDAC6 is a microtubule-associated deacetylase. Nature 417, 455-458; and Piperno, G., LeDizet, M., and Chang, X. J. (1987). Microtubules containing acetylated alpha-tubulin in mammalian cells in culture. J. Cell Biol. 104, 289-302]. Small molecules (˜2-5 μM) of interest were retested using a sample from the plate of stock solutions by fluorescence microscopy and comparison to the effects of trichostatin (300 nM to 1 μM).
(§3) A549 cells were seeded at a density of 50,000/200 μl in DMEM+ on the surface of glass coverslips on top of Parafilm in a 10 cm dish and allowed to attach overnight. For detection of acetylated α-tubulin, cells were permeabilized and fixed with 100 mM K-PIPES, pH 6.8, 10 mM EGTA, 1 mM MgCl2, 0.2% triton X-100, 0.2% glutaraldehyde for fifteen minutes. […]

A further assay concerns histone deacetylation. Put plainly: acetylated lysine / acetylated histone in cells (AcLysine cytoblot, immunofluorescence, Western blot). The note with it: A549 (also BS-C-1) cells, tubacin, niltubacin 2 μM, histacin 20 μM, library ~2-5 μM, 18 h. In kind it is cell-based, human. The method, then: as §1, §2, §3
(A western blot detects proteins with antibodies after separation by electrophoresis.)

A further assay concerns the target T1, HDAC6F (Homo sapiens, UniProt Q9UBN7).
T1 construct: made in house; host or cells: TAg Jurkat cells, transient transfection, anti-FLAG M2 immunoprecipitation
T1 sequence (Q9UBN7 1-1215): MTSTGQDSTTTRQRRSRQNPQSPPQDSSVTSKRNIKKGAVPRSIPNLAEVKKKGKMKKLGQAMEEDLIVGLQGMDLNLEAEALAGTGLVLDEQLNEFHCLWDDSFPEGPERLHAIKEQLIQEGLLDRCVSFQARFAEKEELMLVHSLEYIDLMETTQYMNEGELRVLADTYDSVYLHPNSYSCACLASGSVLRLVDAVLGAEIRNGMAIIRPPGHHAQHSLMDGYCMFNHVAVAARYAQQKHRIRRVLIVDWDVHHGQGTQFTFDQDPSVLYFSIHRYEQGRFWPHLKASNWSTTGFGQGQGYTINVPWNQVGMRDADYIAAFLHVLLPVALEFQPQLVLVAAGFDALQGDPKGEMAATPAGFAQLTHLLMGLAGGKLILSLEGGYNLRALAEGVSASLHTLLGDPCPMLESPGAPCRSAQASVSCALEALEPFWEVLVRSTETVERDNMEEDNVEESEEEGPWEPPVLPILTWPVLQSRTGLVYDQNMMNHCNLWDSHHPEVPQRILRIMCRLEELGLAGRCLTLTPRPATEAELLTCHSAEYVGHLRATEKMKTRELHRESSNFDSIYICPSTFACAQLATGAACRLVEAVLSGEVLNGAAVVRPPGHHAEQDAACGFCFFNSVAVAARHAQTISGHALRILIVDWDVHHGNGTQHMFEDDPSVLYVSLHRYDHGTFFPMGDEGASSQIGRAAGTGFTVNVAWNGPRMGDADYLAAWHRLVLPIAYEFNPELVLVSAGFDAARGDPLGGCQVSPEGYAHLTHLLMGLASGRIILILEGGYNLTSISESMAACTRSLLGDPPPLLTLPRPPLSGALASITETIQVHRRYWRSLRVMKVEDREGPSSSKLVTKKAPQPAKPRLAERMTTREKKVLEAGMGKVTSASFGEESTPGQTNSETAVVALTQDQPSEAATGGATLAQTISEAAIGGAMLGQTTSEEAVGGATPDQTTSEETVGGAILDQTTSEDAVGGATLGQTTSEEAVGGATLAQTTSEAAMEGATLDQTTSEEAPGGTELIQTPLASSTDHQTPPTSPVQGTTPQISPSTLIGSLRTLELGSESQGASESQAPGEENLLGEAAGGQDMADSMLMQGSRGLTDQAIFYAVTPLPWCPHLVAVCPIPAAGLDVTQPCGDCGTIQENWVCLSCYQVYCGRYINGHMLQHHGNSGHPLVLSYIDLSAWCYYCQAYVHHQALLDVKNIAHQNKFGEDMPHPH
The assay is described as follows: in vitro tubulin deacetylase (TDAC) assay, immunoprecipitated wild-type HDAC6F, MAP-stabilized tubulin. In kind it is biochemical. The settings on record: TSA 300 nM or 1 μM, tubacin, niltubacin, trapoxin B 1 μM. The source says:
Tubulin and MAPs were isolated from bovine brain as described [See http://mitchison.med.harvard.edu/protocols/tubprep.html]. Whole brain and fractions from phosphocellulose chromatography were blotted for HDAC6 and acetylated α-tubulin. Cultured hippocampal neurons from dissociated 1-day old rat brains were transfected with an enhanced green fluorescent protein (EGFP)-actin construct at 4-5 days using the calcium phosphate method [E. N. Star, D. J. Kwiatkowski and V. N. Murthy, Nat. Neurosci. […] K. Miranti and M. E. Greenberg, J. Neurosci. […] Transfected cultures were allowed to grow for at least 48 h before the addition of experimental compounds.
[^3H]Acetate-incorporated histones were isolated from butyrate-treated HeLa cells as described [J. Taunton, C. […] Immunoprecipitates were incubated with acetylated histones and HDAC activity determined by scintillation counting as described [J. Taunton, C. […] TDAC assays were performed with immunoprecipitates using MAP-stabilized microtubules polymerized from MAP-rich tubulin fraction as described [C. […] Reactions were incubated (2 h) at 37° C., then incubated on ice (15 min).

The mark [1] stands for this setting: listed as carboxylic acid analogue of JCWII114.

“Also recorded” adds a separate entry of the source. Non-standard residues stand in square brackets, D forms with d. Residues, ends and D or L forms follow the SMILES beside them. Aoe = N[C@@H](CCCCCC(=O)[C@@H]1CO1)C(=O)O

For `C[C@@H]1NC(=O)[C@H]2CCCN2C(=O)[C@H](CCCCCC(=O)[C@@H]2CO2)NC(=O)[C@@H](C)NC1=O` [HC toxin, reference compound], the mitotic abnormalities entry in the assay with A549 cells is recorded as “caused a significant number of abnormal mitotic cells”. The “effect on tubulin deacetylation / α-tubulin acetylation in cells” value in the assay on α-tubulin deacetylation was “have no effect upon α-tubulin acetylation levels; also recorded: no effect on tubulin acetylation”.

For `O=C(O)CCCCCCC(=O)Nc1ccc([C@@H]2OC(c3ccc(CO)cc3)C[C@H](CSc3nc(-c4ccccc4)c(-c4ccccc4)o3)O2)cc1` (stereo partly shown) [JCWII153], the figures for the “effect on histone deacetylation / lysine or histone acetylation in cells” value in the assay on histone deacetylation and in the assay on histone deacetylation (setting [1]) were “inactivity; also recorded: had no effect on α-tubulin or histone acetylation” and “did not affect histone or tubulin deacetylation”, respectively. The “inhibition of TDAC activity of wild-type HDAC6F” value on HDAC6F is on record as “did not; also recorded: not inhibited by the addition of niltubacin or trapoxin”. Besides, the figures for the “effect on tubulin deacetylation / α-tubulin acetylation in cells” value in the assay on α-tubulin deacetylation and in the assay with α-tubulin deacetylation (setting [1]) were “inactivity; also recorded: had no effect on α-tubulin or histone acetylation” and “did not affect histone or tubulin deacetylation”, respectively.

Consider `O=C(CCCCCCC(=O)Nc1ccc(C2OC(CSc3nc(-c4ccccc4)c(-c4ccccc4)o3)CC(c3ccc(CO)cc3)O2)cc1)NO` (stereo not shown) [JCWII169], for which the “potency of inducing α-tubulin acetylation relative to tubacin” value in the assay with α-tubulin deacetylation (AcTubulin cytoblot (enantiotubacin), cells (biotubacin)) is “equally as potent as tubacin”. Further, the “selectivity as TDAC inhibitor relative to tubacin (fold less selective)” value in the assay with α-tubulin deacetylation (after re-synthesis and retesting, unpublished data) is given as about 5 fold. In addition, the “potency and selectivity of the enantiomers JCWII114 and JCWII169 compared” value in the assay with α-tubulin deacetylation (immunofluorescence and Western blot, A549 cells, 5 h or 18 h) is listed as “No significant difference in selectivity or potency”.

For the compound `O=C1N[C@@H](Cc2ccccc2)C(=O)N2CCC[C@@H]2C(=O)N[C@@H](CCCCCC(=O)[C@@H]2CO2)C(=O)N[C@H]1Cc1ccccc1` [trapoxin, trapoxin B, reference compound] (cyclo(FF[dP][Aoe])), the “inhibition of TDAC activity of wild-type HDAC6F” value is “not inhibited by the addition of niltubacin or trapoxin” at HDAC6F and “did not” at HDAC6F (listed as trapoxin B). In addition, the “effect on tubulin deacetylation / α-tubulin acetylation in cells” value in the assay on α-tubulin deacetylation is on record as “have no effect upon α-tubulin acetylation levels”.
